Reference: patent US11992560B2, “Electrospun fibers for a local release of an anti-inflammatory drug and a promyelinating drug” (ALMA MATER STUDIORUM—UNIVERSITÀ DI BOLOGNA, priority 2018, dated 2024)

Test system: LPS stimulated RAW 264.7 cells
Experiment: In vitro efficacy: gene expression (qPCR) in LPS stimulated RAW cells treated with conditioned medium
Format: cell-based, murine
Conditions: conditioned medium 24 h, LPS 500 ng/ml; respect to sc LPS or ibsc
Method: The murine macrophage cell line RAW 264.7 was purchased from the American Type Culture Collection (ATCC® TIB-71™). Cells were grown at 37° C. in DMEM high glucose medium (Thermo Fisher Scientific) supplemented with 10% heat-inactivated fetal bovine serum (FBS—Thermo Fisher Scientific), 1% penicillin/streptomycin (100 U ml-1/100 μg ml-1) (Thermo Fisher Scientific), in a humidified incubator of 5% CO2. When 70-80% confluency was reached, cells were detached mechanically with the scraper and subcultured in 75 cm2 flasks.
In order to evaluate the bioactivity of ibuprofen and T3 released from electrospun PLLA fibres conditioned medium was prepared ad described below. […] Three samples/group were analysed.
At the end of the treatments total RNA isolation was performed with the RNeasy Micro kit (Qiagen) following the manufacturer's instructions. Total RNA was eluted in RNase-free water and concentration estimated through absorbance values at 260, 280 and 320 nm (Nanodrop 2000 spectrophotometer, Thermo Scientific). […] Semi-quantitative real-time PCR was performed using the CFX96 real-time PCR system (Bio-Rad). […] Relative quantification of the target genes expression was calculated using the comparative threshold method 2^(—ΔΔCT). […]

Structure (SMILES): CC(C)Cc1ccc(C(C)C(=O)O)cc1 (stereo not shown) [SC+IBU, Ibuprofen]
- TNFα mRNA level (in words): comparable
